{"source": "patent EP4740948A1", "about": "(Dong Wha Pharm. Co., Ltd., priority 2023, dated 2025)", "key": {"EZH1": {"target": "EZH1 (Homo sapiens, UniProt Q92800)", "sequence (Q92800 whole entry, species assumed)": "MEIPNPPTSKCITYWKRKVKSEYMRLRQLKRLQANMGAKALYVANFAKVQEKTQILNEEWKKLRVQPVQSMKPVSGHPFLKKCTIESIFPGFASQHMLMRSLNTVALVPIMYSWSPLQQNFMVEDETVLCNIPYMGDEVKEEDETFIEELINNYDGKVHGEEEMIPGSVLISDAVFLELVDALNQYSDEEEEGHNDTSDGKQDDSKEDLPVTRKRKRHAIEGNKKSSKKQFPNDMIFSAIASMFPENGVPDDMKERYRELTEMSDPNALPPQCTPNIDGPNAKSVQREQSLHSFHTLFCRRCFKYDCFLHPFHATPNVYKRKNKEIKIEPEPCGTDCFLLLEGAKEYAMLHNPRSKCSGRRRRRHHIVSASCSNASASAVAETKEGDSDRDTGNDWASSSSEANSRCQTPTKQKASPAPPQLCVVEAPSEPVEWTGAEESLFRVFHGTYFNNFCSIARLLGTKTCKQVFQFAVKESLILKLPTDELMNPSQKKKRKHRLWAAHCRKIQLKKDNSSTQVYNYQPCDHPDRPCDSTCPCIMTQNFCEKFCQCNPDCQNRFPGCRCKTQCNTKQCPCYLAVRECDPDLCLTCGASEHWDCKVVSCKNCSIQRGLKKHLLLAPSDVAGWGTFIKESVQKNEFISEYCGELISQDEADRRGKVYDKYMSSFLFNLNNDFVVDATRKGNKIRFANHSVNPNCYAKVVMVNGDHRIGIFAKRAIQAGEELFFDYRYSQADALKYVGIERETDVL", "sequence (O75530 whole entry partner, species assumed)": "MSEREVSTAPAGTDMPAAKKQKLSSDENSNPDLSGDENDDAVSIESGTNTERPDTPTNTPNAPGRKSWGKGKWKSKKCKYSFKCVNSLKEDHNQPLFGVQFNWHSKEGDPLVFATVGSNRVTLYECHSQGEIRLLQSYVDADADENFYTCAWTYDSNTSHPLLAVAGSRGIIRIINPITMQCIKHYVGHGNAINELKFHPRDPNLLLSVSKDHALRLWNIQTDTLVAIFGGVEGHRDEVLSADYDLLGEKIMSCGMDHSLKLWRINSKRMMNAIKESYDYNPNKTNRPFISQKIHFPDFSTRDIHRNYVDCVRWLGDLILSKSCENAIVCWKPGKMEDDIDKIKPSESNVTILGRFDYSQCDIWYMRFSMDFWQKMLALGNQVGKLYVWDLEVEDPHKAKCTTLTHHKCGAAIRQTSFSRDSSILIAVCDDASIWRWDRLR", "sequence (Q15022 whole entry partner, species assumed)": "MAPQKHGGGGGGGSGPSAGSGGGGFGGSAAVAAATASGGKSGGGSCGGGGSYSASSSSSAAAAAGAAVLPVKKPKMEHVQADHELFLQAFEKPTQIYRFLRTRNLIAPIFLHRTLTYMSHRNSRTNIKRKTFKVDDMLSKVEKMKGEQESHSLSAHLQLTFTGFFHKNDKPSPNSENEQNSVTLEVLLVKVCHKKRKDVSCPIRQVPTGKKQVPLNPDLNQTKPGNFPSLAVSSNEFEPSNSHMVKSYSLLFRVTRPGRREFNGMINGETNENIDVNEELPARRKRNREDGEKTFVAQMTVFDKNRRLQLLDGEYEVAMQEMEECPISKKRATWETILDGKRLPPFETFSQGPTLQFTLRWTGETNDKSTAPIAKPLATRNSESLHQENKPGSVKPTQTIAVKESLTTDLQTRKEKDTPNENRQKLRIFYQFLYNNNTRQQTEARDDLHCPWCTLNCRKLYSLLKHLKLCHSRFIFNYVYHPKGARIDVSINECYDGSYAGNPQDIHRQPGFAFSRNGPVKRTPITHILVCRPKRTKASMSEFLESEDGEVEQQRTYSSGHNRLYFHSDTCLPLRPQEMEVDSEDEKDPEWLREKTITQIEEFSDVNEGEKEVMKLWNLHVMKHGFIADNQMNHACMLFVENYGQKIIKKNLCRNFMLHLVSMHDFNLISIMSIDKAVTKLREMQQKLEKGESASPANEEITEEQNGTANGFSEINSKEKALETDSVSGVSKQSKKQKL", "experiment": "AlphaLISA enzyme activity inhibition, EZH1", "type": "biochemical", "in_short": "(§1)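 EZH1 or EZH2 was mixed with compound at 5 nM or 10 nM final in 20 mM Tris pH 8.0, 0.1% BSA, 0.5 mM DTT, then histone H3 peptide and SAM were added. After 2 h reaction, AlphaLISA acceptor and donor beads detected methylation; inhibition rate was calculated against DMSO control.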"}, "MKN-45 cells": {"system": "MKN-45 cells", "experiment": "Cancer cell proliferation inhibition (Cell Counting Kit-8), gastric cancer cell line", "type": "cell-based", "conditions": "Homo sapiens, MKN-45, 264 h, 1000 nM, cultured seven to 11 days; read-out: % inhibition rate MKN -45", "in_short": "(§2)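 Cells grown in RPMI1640, McCoy's 5a, L-15 or DMEM with 10% FBS, seeded at 100 to 1,000 cells/well and treated with test substance at 1000 nM for 7 to 11 days. Viability read by CCK-8; % inhibition = {1−(test/control)} × 100.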"}, "EZH2": {"target": "EZH2 (Homo sapiens, UniProt Q15910)", "sequence (Q15910 whole entry, species assumed)": "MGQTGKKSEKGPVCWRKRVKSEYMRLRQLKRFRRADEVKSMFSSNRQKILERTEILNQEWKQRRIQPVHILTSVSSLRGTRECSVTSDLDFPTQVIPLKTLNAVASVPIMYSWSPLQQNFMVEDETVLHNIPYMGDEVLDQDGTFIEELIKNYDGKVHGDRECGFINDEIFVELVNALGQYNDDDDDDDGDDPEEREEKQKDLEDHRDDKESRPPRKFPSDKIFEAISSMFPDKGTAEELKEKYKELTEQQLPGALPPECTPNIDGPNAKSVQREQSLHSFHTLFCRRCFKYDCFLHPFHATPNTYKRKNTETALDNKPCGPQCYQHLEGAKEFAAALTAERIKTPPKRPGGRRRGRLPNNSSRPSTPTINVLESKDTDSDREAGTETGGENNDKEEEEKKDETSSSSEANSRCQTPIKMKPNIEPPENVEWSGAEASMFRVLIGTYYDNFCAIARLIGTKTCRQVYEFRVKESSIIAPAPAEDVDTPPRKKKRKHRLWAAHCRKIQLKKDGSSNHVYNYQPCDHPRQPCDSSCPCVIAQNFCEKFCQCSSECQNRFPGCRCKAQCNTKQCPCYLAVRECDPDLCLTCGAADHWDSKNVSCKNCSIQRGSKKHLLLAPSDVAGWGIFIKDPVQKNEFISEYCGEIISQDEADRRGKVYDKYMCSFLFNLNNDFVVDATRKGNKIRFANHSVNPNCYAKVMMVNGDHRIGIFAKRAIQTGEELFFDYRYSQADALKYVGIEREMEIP", "sequence (O75530 whole entry partner, species assumed)": "as the sequence (O75530 whole entry partner, species assumed) above", "sequence (Q15022 whole entry partner, species assumed)": "as the sequence (Q15022 whole entry partner, species assumed) above", "experiment": "AlphaLISA enzyme activity inhibition, EZH2", "type": "biochemical", "in_short": "as §1"}, "NCI-H1299 cells": {"system": "NCI-H1299 cells", "experiment": "Cancer cell proliferation inhibition (Cell Counting Kit-8), lung cancer cell line", "type": "cell-based", "conditions": "Homo sapiens, NCI-H1299, 264 h, 1000 nM, cultured seven to 11 days; read-out: % inhibition rate NCI-H129 9", "in_short": "(§3)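 Cells grown in RPMI1640, McCoy's 5a, L-15 or DMEM with 10% fetal bovine serum, seeded at 100 to 1,000 cells per well, then exposed to test compound at 1000 nM for seven to 11 days. Viability read by CCK-8; % inhibition = {1−(test/control)} × 100.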"}, "Lovo cells": {"system": "Lovo cells", "experiment": "Cancer cell proliferation inhibition (Cell Counting Kit-8), colorectal cancer cell line", "type": "cell-based", "conditions": "Homo sapiens, LoVo, 264 h, 1000 nM, cultured seven to 11 days; read-out: % inhibition rate LoVo", "in_short": "as §3"}, "MIA-PaCa-2 cells": {"system": "MIA-PaCa-2 cells", "experiment": "Cancer cell proliferation inhibition (Cell Counting Kit-8), pancreatic cancer cell line", "type": "cell-based", "conditions": "Homo sapiens, MIA PaCa-2, 264 h, 1000 nM, cultured seven to 11 days; read-out: % inhibition rate MIA-Paca2", "in_short": "as §3"}, "SW-13 cells": {"system": "SW-13 cells", "experiment": "Cancer cell proliferation inhibition (Cell Counting Kit-8), adrenal cancer cell line", "type": "cell-based", "conditions": "Homo sapiens, SW13, 264 h, 1000 nM, cultured seven to 11 days; read-out: % inhibition rate SW-13", "in_short": "as §3"}, "G401 cells": {"system": "G401 cells", "experiment": "Cancer cell proliferation inhibition (Cell Counting Kit-8), rhabdoid tumor cell line", "type": "cell-based", "conditions": "Homo sapiens, G-401, 264 h, 1000 nM, cultured seven to 11 days; read-out: % inhibition rate G401", "in_short": "as §2"}}, "data": [{"smiles": "CSc1cc(C)[nH]c(=O)c1CNC(=O)c1cc(-c2ccc(N3CCCCC3)cc2)c2c(c1C)OC(C)(C1CCN(CC(F)(F)F)CC1)O2", "note": "(stereo not shown) [Compound 90, 2,4-dimethyl-N-((6-methyl-4-(methylthio)-2-oxo-1,2-dihydropyridin-3-yl)methyl)-7-(4-(piperidin-1-yl)phenyl)-2-(1-(2,2,2-trifluoroethyl)piperidin-4-yl)benzo[d][1,3]dioxole-5-carboxamide]", "values": [{"measurement": "inhibition at 0.005 µM", "setting": "EZH1; 5nM test substance", "result": 20.2, "unit": "%"}, {"measurement": "inhibition at 0.01 µM", "setting": "EZH1; 10nM test substance", "result": 16.2, "unit": "%"}, {"measurement": "inhibition at 1 µM", "setting": "MKN-45 cells", "result": "≤ 30", "unit": "%"}, {"measurement": "inhibition at 0.005 µM", "setting": "EZH2; 5nM test substance", "result": 60.1, "unit": "%"}, {"measurement": "inhibition at 0.01 µM", "setting": "EZH2; 10nM test substance", "result": 82.3, "unit": "%"}, {"measurement": "inhibition at 1 µM", "setting": "NCI-H1299 cells", "result": "≤ 30", "unit": "%"}, {"measurement": "inhibition at 1 µM", "setting": "Lovo cells", "result": "≥ 70", "unit": "%"}, {"measurement": "inhibition at 1 µM", "setting": "MIA-PaCa-2 cells", "result": "≤ 30", "unit": "%"}, {"measurement": "inhibition at 1 µM", "setting": "SW-13 cells", "result": "≤ 30", "unit": "%"}, {"measurement": "inhibition at 1 µM", "setting": "G401 cells", "result": "30 to 70", "unit": "%"}]}]}
